Consider 7 compounds from US12370161B2, “Composition for treating atopy or pruritus comprising N-acetyl or N-acyl amino acid” (STEMDR INC., priority 2017, dated 2025).

The test system of the assay is atopic dermatitis-induced Balb/c mouse. The experiment in a line: SCORAD clinical skin score, DNFB-induced atopic dermatitis in Balb/c mouse. The assay is classed as in vivo. The arrangement: key to Mouse 1 Sum / Mean (of Sum, SCORAD) / Mouse 2 Sum / Mouse 3 Sum: sum of symptom grades, each 0 (none) to 3 (severe). As to conditions: DNFB Balb/c; for Mouse 1 Erythema: 0.1% in PBS, 200 μL on back skin daily day 22-28, grade 0-3 (0 no symptom, 1 mild, 2 moderate, 3 severe); for Mouse 1 Abrasion / Mouse 1 Dryness / Mouse 1 Edema / Mouse 1 Eschar / Mouse 1 Lichenification / Mouse 1 Sum / Mouse 2 Abrasion / Mouse 2 Dryness / Mouse 2 Edema / Mouse 2 Erythema / Mouse 2 Eschar / Mouse 2 Lichenification / Mouse 2 Sum / Mouse 3 Abrasion / Mouse 3 Dryness / Mouse 3 Edema / Mouse 3 Erythema / Mouse 3 Eschar / Mouse 3 Lichenification / Mouse 3 Sum / Mean (of Sum, SCORAD): 0.1% topical day 22-28; for Mouse 1 Abrasion / Mouse 1 Dryness / Mouse 1 Edema / Mouse 1 Eschar / Mouse 1 Lichenification / Mouse 2 Abrasion / Mouse 2 Dryness / Mouse 2 Edema / Mouse 2 Erythema / Mouse 2 Eschar / Mouse 2 Lichenification / Mouse 3 Abrasion / Mouse 3 Dryness / Mouse 3 Edema / Mouse 3 Erythema / Mouse 3 Eschar / Mouse 3 Lichenification: grade 0-3; for Mouse 1 Sum / Mouse 2 Sum / Mouse 3 Sum: overall dermatitis score, sum of individual scores; for Mean (of Sum, SCORAD): mean of 3 mice. Here is the method: In order to induce atopy-like dermatitis in Balb/c mice, DNFB sensitization was induced by applying 100 μL of 0.35% 2,4-dinitrofluorobenzene (DNFB) (Sigma, USA) in acetone/olive oil (3:1) on the shaved back skin of the mice. Then, dermatitis was induced by applying 100 μL of 0.25% DNFB on days 6, 9, 12, 15, 18 21, 24 and 27 on the shaved back skin. Control mice were treated with a vehicle of the same volume (FIG. 1A).
After dissolving an N-acetyl or N-acylamino acid in phosphate-buffered saline to 0.1%, 200 μL of the solution was applied on the back skin of the mice every day, from day 22 until day 28 for the Balb/c atopic dermatitis model, and from day 15 until day 21 for the Nc/Nga atopic dermatitis model. When the N-acetyl or N-acylamino acid was treated together with DNFB, they were treated with 12-hour intervals in order to avoid direct reaction between the DNFB and the N-acetyl or N-acylamino acid. A non-treated group and a 2,4-dinitrofluorobenzene (DNFB) group were treated with phosphate-buffered saline of the same volume (FIGS. 1A-1B). As the N-acetylamino acid, products purchased from Sigma-Aldrich (USA), MP scientific (USA), TCI (Tokyo Chemical Industry, Japan), Santacruz (USA), etc. were used without purification.
The degree of skin soothing and the severity of atopic dermatitis were evaluated macroscopically according to the previously established SCORAD (SCORing Atopic Dermatitis) method (Oranje et al., 2007). The degree of symptoms such as edema, erythema, eschar, dryness, abrasion, lichenification, etc. was graded from 0 to 3 (0, no symptom; 1, mild; 2, moderate; 3, severe). The overall dermatitis score was determined from the sum of all individual scores (Table 1). The assessment was performed by an investigator who was blind to the grouping of the mice.

With `CC(=O)N[C@@H](Cc1c[nH]cn1)C(=O)O` [N-acetyl-L-histidine], the “Mouse 1 Erythema” value is given as 3, the “Mouse 1 Abrasion” value was determined as 2, the “Mouse 1 Dryness” value was determined as 3 and the “Mouse 1 Edema” value is given as 2. The “Mouse 1 Eschar” value came to 2, the “Mouse 1 Lichenification” value is listed as 3, the “Mouse 1 Sum” value was 15 and the “Mouse 2 Abrasion” value came to 2. For the same compound, the “Mouse 2 Dryness” value worked out at 3, the “Mouse 2 Edema” value turned out to be 2, the “Mouse 2 Erythema” value is 3 and the “Mouse 2 Eschar” value amounted to 2. Also, the “Mouse 2 Lichenification” value is 3, the “Mouse 2 Sum” value is reported as 15, the “Mouse 3 Abrasion” value stood at 2 and the “Mouse 3 Dryness” value was determined as 3. Also, the “Mouse 3 Edema” value turned out to be 2, the “Mouse 3 Erythema” value turned out to be 3, the “Mouse 3 Eschar” value is given as 2 and the “Mouse 3 Lichenification” value was found to be 2. For the same compound, the “Mouse 3 Sum” value was 14 and the “Mean (of Sum, SCORAD)” value worked out at 14.67.

In the case of `CSCC[C@H](NC(C)=O)C(=O)O` [N-acetyl-L-methionine], the “Mouse 1 Erythema” value came to 2, the “Mouse 1 Abrasion” value worked out at 2, the “Mouse 1 Dryness” value is listed as 3 and the “Mouse 1 Edema” value came to 2. The “Mouse 1 Eschar” value came out at 2, the “Mouse 1 Lichenification” value is on record as 3, the “Mouse 1 Sum” value is on record as 14 and the “Mouse 2 Abrasion” value was found to be 2. Besides, the “Mouse 2 Dryness” value stood at 3, the “Mouse 2 Edema” value is 2, the “Mouse 2 Erythema” value is listed as 3 and the “Mouse 2 Eschar” value is listed as 3. The “Mouse 2 Lichenification” value is 3, the “Mouse 2 Sum” value turned out to be 16, the “Mouse 3 Abrasion” value is reported as 2 and the “Mouse 3 Dryness” value was 3. Moreover, the “Mouse 3 Edema” value amounted to 2, the “Mouse 3 Erythema” value came to 2, the “Mouse 3 Eschar” value came to 2 and the “Mouse 3 Lichenification” value amounted to 3. The “Mouse 3 Sum” value came to 14 and the “Mean (of Sum, SCORAD)” value came out at 14.67.

`CC(=O)N[C@H](C(=O)O)C(C)C` [N-acetyl-L-valine]: the “Mouse 1 Erythema” value was 3, the “Mouse 1 Abrasion” value turned out to be 2, the “Mouse 1 Dryness” value was found to be 2 and the “Mouse 1 Edema” value is recorded as 2. In addition, the “Mouse 1 Eschar” value worked out at 2, the “Mouse 1 Lichenification” value was determined as 3, the “Mouse 1 Sum” value is 14 and the “Mouse 2 Abrasion” value amounted to 2. Moreover, the “Mouse 2 Dryness” value was determined as 2, the “Mouse 2 Edema” value is reported as 2, the “Mouse 2 Erythema” value stood at 2 and the “Mouse 2 Eschar” value is given as 2. Also, the “Mouse 2 Lichenification” value is 3, the “Mouse 2 Sum” value is 13, the “Mouse 3 Abrasion” value came to 1 and the “Mouse 3 Dryness” value is listed as 3. Further, the “Mouse 3 Edema” value amounted to 2, the “Mouse 3 Erythema” value was determined as 2, the “Mouse 3 Eschar” value was 2 and the “Mouse 3 Lichenification” value was 2. In addition, the “Mouse 3 Sum” value was 12 and the “Mean (of Sum, SCORAD)” value worked out at 13.

Turning to `CC(=O)N[C@@H](CCC(=O)O)C(=O)O` [N-acetyl-L-glutamic acid], the “Mouse 1 Erythema” value was 3, the “Mouse 1 Abrasion” value is reported as 2, the “Mouse 1 Dryness” value was determined as 2 and the “Mouse 1 Edema” value was found to be 2. The “Mouse 1 Eschar” value came to 2, the “Mouse 1 Lichenification” value is given as 3, the “Mouse 1 Sum” value is on record as 14 and the “Mouse 2 Abrasion” value amounted to 2. Further, the “Mouse 2 Dryness” value was determined as 3, the “Mouse 2 Edema” value worked out at 2, the “Mouse 2 Erythema” value came out at 2 and the “Mouse 2 Eschar” value stood at 2. For the same compound, the “Mouse 2 Lichenification” value was 2, the “Mouse 2 Sum” value is 13, the “Mouse 3 Abrasion” value is reported as 2 and the “Mouse 3 Dryness” value came out at 3. The “Mouse 3 Edema” value turned out to be 2, the “Mouse 3 Erythema” value stood at 1, the “Mouse 3 Eschar” value is on record as 2 and the “Mouse 3 Lichenification” value came to 2. Moreover, the “Mouse 3 Sum” value is on record as 12 and the “Mean (of Sum, SCORAD)” value is given as 13.

Turning to `CC(=O)N[C@@H](CC(=O)O)C(=O)O` [N-acetyl-L-aspartic acid], the “Mouse 1 Erythema” value stood at 3, the “Mouse 1 Abrasion” value amounted to 2, the “Mouse 1 Dryness” value was 2 and the “Mouse 1 Edema” value is recorded as 2. For the same compound, the “Mouse 1 Eschar” value was determined as 2, the “Mouse 1 Lichenification” value is reported as 2, the “Mouse 1 Sum” value worked out at 13 and the “Mouse 2 Abrasion” value is recorded as 2. For the same compound, the “Mouse 2 Dryness” value is on record as 3, the “Mouse 2 Edema” value is on record as 2, the “Mouse 2 Erythema” value came out at 3 and the “Mouse 2 Eschar” value stood at 2. The “Mouse 2 Lichenification” value came to 2, the “Mouse 2 Sum” value is given as 14, the “Mouse 3 Abrasion” value stood at 2 and the “Mouse 3 Dryness” value was 2. The “Mouse 3 Edema” value came out at 2, the “Mouse 3 Erythema” value was 3, the “Mouse 3 Eschar” value is given as 2 and the “Mouse 3 Lichenification” value is listed as 1. Further, the “Mouse 3 Sum” value was determined as 12 and the “Mean (of Sum, SCORAD)” value is 13.

`CC(=O)N[C@@H](Cc1ccc(O)cc1)C(=O)O` [N-acetyl-L-tyrosme]: the “Mouse 1 Erythema” value is recorded as 3, the “Mouse 1 Abrasion” value was found to be 2, the “Mouse 1 Dryness” value was 3 and the “Mouse 1 Edema” value is listed as 2. Further, the “Mouse 1 Eschar” value worked out at 3, the “Mouse 1 Lichenification” value is on record as 2, the “Mouse 1 Sum” value is on record as 15 and the “Mouse 2 Abrasion” value turned out to be 2. The “Mouse 2 Dryness” value was 3, the “Mouse 2 Edema” value is listed as 2, the “Mouse 2 Erythema” value is reported as 3 and the “Mouse 2 Eschar” value is 2. Moreover, the “Mouse 2 Lichenification” value worked out at 3, the “Mouse 2 Sum” value was found to be 15, the “Mouse 3 Abrasion” value worked out at 2 and the “Mouse 3 Dryness” value was found to be 2. The “Mouse 3 Edema” value is reported as 2, the “Mouse 3 Erythema” value was determined as 3, the “Mouse 3 Eschar” value was found to be 2 and the “Mouse 3 Lichenification” value came to 2. Moreover, the “Mouse 3 Sum” value is on record as 13 and the “Mean (of Sum, SCORAD)” value stood at 14.33.

Take `CC(=O)N[C@@H](CC(N)=O)C(=O)O` [N-acetyl-L-asparagine]: the “Mouse 1 Erythema” value was determined as 3, the “Mouse 1 Abrasion” value was determined as 3, the “Mouse 1 Dryness” value is reported as 3 and the “Mouse 1 Edema” value is given as 2. The “Mouse 1 Eschar” value was found to be 2, the “Mouse 1 Lichenification” value amounted to 2, the Mouse 1 Sum was determined as 15 and the “Mouse 2 Abrasion” value worked out at 3. Besides, the “Mouse 2 Dryness” value is 2, the “Mouse 2 Edema” value was 2, the “Mouse 2 Erythema” value was 2 and the “Mouse 2 Eschar” value was 3. The “Mouse 2 Lichenification” value was 3, the “Mouse 2 Sum” value stood at 14, the “Mouse 3 Abrasion” value is 2 and the “Mouse 3 Dryness” value turned out to be 3. For the same compound, the “Mouse 3 Edema” value is 3, the “Mouse 3 Erythema” value is recorded as 3, the “Mouse 3 Eschar” value is 3 and the “Mouse 3 Lichenification” value is on record as 2. The “Mouse 3 Sum” value was 16 and the “Mean (of Sum, SCORAD)” value is given as 15.
